In patent US20250340575A1, “4-AMINOPYRROLO[2,1-F][1,2,4]TRIAZINES AND PREPARATION AND USES THEREOF” (Biosplice Therapeutics, Inc., priority 2024, published 2025):
pIC50: −log10 of the molar value.

What follows are compounds tested against recombinant DYRK1A kinase (Homo sapiens, UniProt Q13627) (assay: DYRK1A kinase assay (Ser/Thr 18 peptide Z-lyte FRET)). Conditions: DYRK1A 0.25 μg/mL, ATP 15 μM, Ser/Thr peptide 18 4 μM, one hour at room temperature, 11-point dose-response from 10 μM.
Format: biochemical

Compound | pIC50
CNc1nc(N[C@@H]2CCN(C)CC2(F)F)nn2cc(F)c(-c3ccc4nnn(CCF)c4n3)c12 [Compound 251, (R)—N^2-(3,3-Difluoro-1-methylpiperidin-4-yl)-6-fluoro-5-(3-(2-fluoroethyl)-3H-[1,2,3]triazolo[4,5-b]pyridin-5-yl)-N^4-methylpyrrolo[2,1-f][1,2,4]triazine-2,4-diamine] | 8.66
CNc1nc(N[C@@H]2CCN(C(C)=O)CC2(F)F)nn2cc(F)c(-c3ccc4nnn(CCF)c4n3)c12 [Compound 252, (R)-1-(3,3-Difluoro-4-((6-fluoro-5-(3-(2-fluoroethyl)-3H-[1,2,3]triazolo[4,5-b]pyridin-5-yl)-4-(methylamino)pyrrolo[2,1-f][1,2,4]triazin-2-yl)amino)piperidin-1-yl)ethan-1-one] | 8.72
CNc1nc(N[C@@H]2CCN(C3COC3)CC2(F)F)nn2cc(F)c(-c3ccc4nnn(CCF)c4n3)c12 [Compound 254, (R)—N^2-(3,3-Difluoro-1-(oxetan-3-yl)piperidin-4-yl)-6-fluoro-5-(3-(2-fluoroethyl)-3H-[1,2,3]triazolo[4,5-b]pyridin-5-yl)-N^4-methylpyrrolo[2,1-f][1,2,4]triazine-2,4-diamine] | 8.66
COCCN1CC[C@H](Nc2nc(N)c3c(-c4ccc5nnn(CC(F)F)c5n4)ccn3n2)[C@H](F)C1 [Compound 256, 5-(3-(2,2-Difluoroethyl)-3H-[1,2,3]triazolo[4,5-b]pyridin-5-yl)-N^2-((3R,4S)-3-fluoro-1-(2-methoxyethyl)piperidin-4-yl)pyrrolo[2,1-f][1,2,4]triazine-2,4-diamine] | 8.46
C[C@]1(O)CC[C@H](Nc2nc(N)c3c(-c4ccc5nnn(CC(F)F)c5n4)c(F)cn3n2)CC1 [Compound 257, (1r,4r)-4-((4-Amino-5-(3-(2,2-difluoroethyl)-3H-[1,2,3]triazolo[4,5-b]pyridin-5-yl)-6-fluoropyrrolo[2,1-f][1,2,4]triazin-2-yl)amino)-1-methylcyclohexan-1-ol] | 8.85
CC(=O)N1CC[C@H](Nc2nc(N)c3c(-c4ccc5nnn(CC(F)F)c5n4)c(F)cn3n2)[C@H](F)C1 [Compound 258, 1-((3R,4S)-4-((4-amino-5-(3-(2,2-difluoroethyl)-3H-[1,2,3]triazolo[4,5-b]pyridin-5-yl)-6-fluoropyrrolo[2,1-f][1,2,4]triazin-2-yl)amino)-3-fluoropiperidin-1-yl)ethan-1-one] | 8.89
Nc1nc(N[C@H]2CCN(C3COC3)C[C@H]2F)nn2cc(F)c(-c3ccc4nnn(CC(F)F)c4n3)c12 [Compound 260, 5-(3-(2,2-Difluoroethyl)-3H-[1,2,3]triazolo[4,5-b]pyridin-5-yl)-6-fluoro-N^2-((3R,4S)-3-fluoro-1-(oxetan-3-yl)piperidin-4-yl)pyrrolo[2,1-f][1,2,4]triazine-2,4-diamine] | 8.74
CN1CC[C@@H](Nc2nc(N)c3c(-c4ccc5nnn(CC(F)F)c5n4)c(F)cn3n2)C(F)(F)C1 [Compound 261, (R)—N^2-(3,3-Difluoro-1-methylpiperidin-4-yl)-5-(3-(2,2-difluoroethyl)-3H-[1,2,3]triazolo[4,5-b]pyridin-5-yl)-6-fluoropyrrolo[2,1-f][1,2,4]triazine-2,4-diamine] | 9.22
CC(=O)N1CC[C@@H](Nc2nc(N)c3c(-c4ccc5nnn(CC(F)F)c5n4)c(F)cn3n2)C(F)(F)C1 [Compound 262, (R)-1-(4-((4-Amino-5-(3-(2,2-difluoroethyl)-3H-[1,2,3]triazolo[4,5-b]pyridin-5-yl)-6-fluoropyrrolo[2,1-f][1,2,4]triazin-2-yl)amino)-3,3-difluoropiperidin-1-yl)ethan-1-one] | 8.89
Nc1nc(N[C@@H]2CCN(C3COC3)CC2(F)F)nn2cc(F)c(-c3ccc4nnn(CC(F)F)c4n3)c12 [Compound 264, (R)—N^2-(3,3-Difluoro-1-(oxetan-3-yl)piperidin-4-yl)-5-(3-(2,2-difluoroethyl)-3H-[1,2,3]triazolo[4,5-b]pyridin-5-yl)-6-fluoropyrrolo[2,1-f][1,2,4]triazine-2,4-diamine] | 8.92
CC[C@]1(O)C[C@H](Nc2nc(NC)c3c(-c4ccc5nnn(CC(F)F)c5n4)ccn3n2)C1 [Compound 267, (1r,3s)-3-((5-(3-(2,2-Difluoroethyl)-3H-[1,2,3]triazolo[4,5-b]pyridin-5-yl)-4-(methylamino)pyrrolo[2,1-f][1,2,4]triazin-2-yl)amino)-1-ethylcyclobutan-1-ol] | 9.30
CNc1nc(NC2CCN(CC(F)F)CC2)nn2ccc(-c3ccc4nnn(CC(F)F)c4n3)c12 [Compound 270, 5-(3-(2,2-Difluoroethyl)-3H-[1,2,3]triazolo[4,5-b]pyridin-5-yl)-N^2-(1-(2,2-difluoroethyl)piperidin-4-yl)-N^4-methylpyrrolo[2,1-f][1,2,4]triazine-2,4-diamine] | 8.77
CNc1nc(NC2CCN(C3COC3)CC2)nn2ccc(-c3ccc4nnn(CC(F)F)c4n3)c12 [Compound 271, 5-(3-(2,2-Difluoroethyl)-3H-[1,2,3]triazolo[4,5-b]pyridin-5-yl)-N^4-methyl-N^2-(1-(oxetan-3-yl)piperidin-4-yl)pyrrolo[2,1-f][1,2,4]triazine-2,4-diamine] | 8.54
CNc1nc(N[C@@H]2CCN(C)C[C@@H]2F)nn2ccc(-c3ccc4nnn(CC(F)F)c4n3)c12 [Compound 272, 5-(3-(2,2-Difluoroethyl)-3H-[1,2,3]triazolo[4,5-b]pyridin-5-yl)-N^2-((3S,4R)-3-fluoro-1-methylpiperidin-4-yl)-N^4-methylpyrrolo[2,1-f][1,2,4]triazine-2,4-diamine] | 8.30
CNc1nc(N[C@H]2CCN(C)C[C@H]2F)nn2ccc(-c3ccc4nnn(CC(F)F)c4n3)c12 [Compound 273, 5-(3-(2,2-Difluoroethyl)-3H-[1,2,3]triazolo[4,5-b]pyridin-5-yl)-N^2-((3R,4S)-3-fluoro-1-methylpiperidin-4-yl)-N^4-methylpyrrolo[2,1-f][1,2,4]triazine-2,4-diamine] | 8.57
CNc1nc(N[C@H]2CCN(CCF)C[C@H]2F)nn2ccc(-c3ccc4nnn(CC(F)F)c4n3)c12 [Compound 274, 5-(3-(2,2-Difluoroethyl)-3H-[1,2,3]triazolo[4,5-b]pyridin-5-yl)-N^2-((3R,4S)-3-fluoro-1-(2-fluoroethyl)piperidin-4-yl)-N^4-methylpyrrolo[2,1-f][1,2,4]triazine-2,4-diamine] | 8.44
CNc1nc(N[C@H]2CCN(CCOC)C[C@H]2F)nn2ccc(-c3ccc4nnn(CC(F)F)c4n3)c12 [Compound 275, 5-(3-(2,2-Difluoroethyl)-3H-[1,2,3]triazolo[4,5-b]pyridin-5-yl)-N^2-((3R,4S)-3-fluoro-1-(2-methoxyethyl)piperidin-4-yl)-N^4-methylpyrrolo[2,1-f][1,2,4]triazine-2,4-diamine] | 8.08
CNc1nc(N[C@@H]2CCN(C(=O)CO)CC2(F)F)nn2ccc(-c3ccc4nnn(CC(F)F)c4n3)c12 [Compound 276, (R)-1-(4-((5-(3-(2,2-Difluoroethyl)-3H-[1,2,3]triazolo[4,5-b]pyridin-5-yl)-4-(methylamino)pyrrolo[2,1-f][1,2,4]triazin-2-yl)amino)-3,3-difluoropiperidin-1-yl)-2-hydroxyethan-1-one] | 8.92
CNc1nc(N[C@H]2CC[C@](C)(O)CC2)nn2cc(F)c(-c3ccc4nnn(CC(F)F)c4n3)c12 [Compound 286, (1r,4r)-4-((5-(3-(2,2-Difluoroethyl)-3H-[1,2,3]triazolo[4,5-b]pyridin-5-yl)-6-fluoro-4-(methylamino)pyrrolo[2,1-f][1,2,4]triazin-2-yl)amino)-1-methylcyclohexan-1-ol] | 8.44
CNc1nc(N[C@H]2CCN(C(C)=O)C[C@H]2F)nn2cc(F)c(-c3ccc4nnn(CC(F)F)c4n3)c12 [Compound 288, 1-((3R,4S)-4-((5-(3-(2,2-Difluoroethyl)-3H-[1,2,3]triazolo[4,5-b]pyridin-5-yl)-6-fluoro-4-(methylamino)pyrrolo[2,1-f][1,2,4]triazin-2-yl)amino)-3-fluoropiperidin-1-yl)ethan-1-one] | 8.62
CNc1nc(N[C@H]2CCN(C3COC3)C[C@H]2F)nn2cc(F)c(-c3ccc4nnn(CC(F)F)c4n3)c12 [Compound 290, 5-(3-(2,2-Difluoroethyl)-3H-[1,2,3]triazolo[4,5-b]pyridin-5-yl)-6-fluoro-N^2-((3R,4S)-3-fluoro-1-(oxetan-3-yl)piperidin-4-yl)-N^4-methylpyrrolo[2,1-f][1,2,4]triazine-2,4-diamine] | 8.92
CNc1nc(N[C@@H]2CCN(C)CC2(F)F)nn2cc(F)c(-c3ccc4nnn(CC(F)F)c4n3)c12 [Compound 291, (R)—N^2-(3,3-Difluoro-1-methylpiperidin-4-yl)-5-(3-(2,2-difluoroethyl)-3H-[1,2,3]triazolo[4,5-b]pyridin-5-yl)-6-fluoro-N^4-methylpyrrolo[2,1-f][1,2,4]triazine-2,4-diamine] | 8.92
CNc1nc(N[C@@H]2CCN(C(C)=O)CC2(F)F)nn2cc(F)c(-c3ccc4nnn(CC(F)F)c4n3)c12 [Compound 293, (R)-1-(4-((5-(3-(2,2-Difluoroethyl)-3H-[1,2,3]triazolo[4,5-b]pyridin-5-yl)-6-fluoro-4-(methylamino)pyrrolo[2,1-f][1,2,4]triazin-2-yl)amino)-3,3-difluoropiperidin-1-yl)ethan-1-one] | 8.72
CNc1nc(N[C@@H]2CCN(C3COC3)CC2(F)F)nn2cc(F)c(-c3ccc4nnn(CC(F)F)c4n3)c12 [Compound 295, (R)—N^2-(3,3-Difluoro-1-(oxetan-3-yl)piperidin-4-yl)-5-(3-(2,2-difluoroethyl)-3H-[1,2,3]triazolo[4,5-b]pyridin-5-yl)-6-fluoro-N^4-methylpyrrolo[2,1-f][1,2,4]triazine-2,4-diamine] | 8.85
CNc1nc(N[C@H]2CCN(C)C[C@H]2F)nn2ccc(-c3ccc4nnn(CCCF)c4n3)c12 [Compound 333, N^2-((3R,4S)-3-Fluoro-1-methylpiperidin-4-yl)-5-(3-(3-fluoropropyl)-3H-[1,2,3]triazolo[4,5-b]pyridin-5-yl)-N^4-methylpyrrolo[2,1-f][1,2,4]triazine-2,4-diamine] | 7.95
